SMILES strings stand for the structures.

This data set is described as follows: gradient 5% acetonitrile 3 min, to 50% in 2 min, to 85% in 15 min, held 3 min, 100 µL/min. The conditions noted are these: column: Zorbax Extend-C18 2.1 x 50 mm; eluents: water / acetonitrile, 0.1% formic acid. A digest of the protocol:
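Data were gathered over 3 months by HPLC coupled to a quadrupole time-of-flight mass spectrometer, operated in positive and negative ionization mode. Mixtures of ~100 pure standards ran on a Zorbax Extend-C18 column (2.1 × 50 mm, 1.8 μm) at 100 μL/min, with water and acetonitrile each containing 0.1% formic acid and dead and dwell volumes of 40 μL and 900 μL. Retention time was read from adduct peaks picked by computer and checked manually.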
`COc1ccc(C(=O)Nc2ccc3nc(N4CCN(CCC#N)CC4)cc(C(=O)O)c3c2)cc1` gave an RP-LC retention time of 599 s. With `O=C(NC1CC1)C1CCN(c2nc3ccc(-c4cccs4)nc3s2)CC1` the figure was 809 s; with `COc1cccc(N2CCN(C(=O)C3CCN(S(=O)(=O)c4cn(C(C)C)cn4)CC3)CC2)c1`, 764 s; with `Cc1cccc(NC(=O)C2CCCN2S(=O)(=O)c2ccc3c(c2)NC(=O)CO3)c1C` (stereo unspecified), 805 s. With `Cc1ccccc1NC(=O)N1c2ccccc2NC2=C(C(=O)CCC2)C1c1ccco1` (stereo unspecified) the figure was 817 s; with `CC(C)CCNC(=O)c1ccc2c(c1)N(C)C(=O)C1CCCCN21` (stereo unspecified), 885 s; with `O=C(Nc1ccc2c(c1)OCCO2)N1CCCn2nc(-c3ccncc3)cc2C1`, 590 s. `CCOCCCNC(=O)c1cc2sc(CC)cc2n1C` displayed an RP-LC retention time of 960 s. With `CCOC(=O)c1[nH]c2ccc(OC)cc2c1NC(=O)CN(C)C` the figure was 575 s. With `O=C(Nc1ccccc1F)N1CCN(Cc2nc3cc(Cl)ccc3o2)CC1` the figure was 737 s; with `CCOC(=O)CCCn1nc(C)c2c(C)n(-c3ccccc3)nc2c1=O`, 829 s. Compound `CC(=O)Nc1ccc(C2(C(=O)NCc3cccs3)CCC2)cc1` showed an RP-LC retention time of 710 s. The figure for `Cc1ccc(C)c(NC(=O)Cn2nc3c(N4CCCCCC4)nccn3c2=O)c1` is 730 s; for `COCCc1noc(C2Cc3ccccc3N2C(=O)NCc2ccco2)n1` (stereo unspecified) it is 807 s.

The compound `COCc1cc(=O)n(CC(=O)Nc2cccc(Cl)c2)c(N2CCOCC2)n1` returned an RP-LC retention time of 884 s. The figure for `COc1ccc(C(=O)N2CCC[C@H]2c2nc(-c3ccccc3)n[nH]2)cn1` is 659 s; for `COc1ccc(-c2c(C)noc2NC(C)=O)cc1S(=O)(=O)NCc1ccc(C)o1` it is 714 s; for `CCCn1c(=O)c(C)nc2cc(-c3noc(-c4ccc(OCC)cc4)n3)ccc21` it is 1290 s.

Compound `Cc1ccc(-c2csc(-c3cccn3CC(=O)NCc3ccco3)n2)cc1` returned an RP-LC retention time of 1100 s. With `COc1ccc(C2(C(=O)N3CCCCCCNC(=O)[C@@H]4CCCC[C@@H]43)CC2)cc1` the figure was 894 s; with `O=C(Nc1nc(-c2cccnc2)cs1)C(c1ccccc1)n1cccc1` (stereo unspecified), 662 s. `COCC(C)(O)CNC(=O)NC1CCCCC1` (stereo unspecified) showed an RP-LC retention time of 596 s. For the compound `O=C(NC1CCCCCC1)C1CCCN(c2nccnc2Oc2ccccc2)C1` (stereo unspecified), the RP-LC retention time was determined as 1060 s.

As for `Cc1nn(C)c(C)c1S(=O)(=O)N1CC=C(c2cn(C)c3ncccc23)CC1`, the RP-LC retention time amounted to 754 s. With `Cc1ccc(N2C(=O)CSC2c2ccccc2)cc1` (stereo unspecified) the figure was 843 s; with `Cc1ccc(N2C(=O)SC(N(CC(N)=O)c3ccc(C)cc3)C2=O)cc1` (stereo unspecified), 782 s.

On to `COc1ccc(CCN2CC(=O)N3Cc4[nH]c5ccccc5c4C[C@H]3C2=O)cc1OC`, for which the RP-LC retention time turned out to be 761 s. The figure for `CN(C)c1cnc(-n2cc(NC(=O)c3cccc(N(C)C)c3)cn2)nc1` is 672 s; for `COc1ccccc1N1C(=O)CC(Sc2ccccc2N)C1=O` (stereo unspecified) it is 865 s.

`O=C(NCc1ccccc1)N1CCN(c2cnn3c(C4CC4)nnc3c2)CC1` gave an RP-LC retention time of 578 s.

For `CCC(=O)Nc1ccc(SCC(=O)Nc2ccc(F)c(Cl)c2)nn1`, the RP-LC retention time is 772 s. `Cc1nc(N2CCOCC2)cc(N2CCN(C(=O)c3ccc(Br)o3)CC2)n1` displayed an RP-LC retention time of 619 s. As to `O=C(COc1ccccc1)N1CCN(c2nc(CN3CCCC3)cs2)CC1`, the RP-LC retention time turned out to be 623 s.

On to `COc1ccc(Cn2nc3ccc(S(=O)(=O)N4CCCC4)cn3c2=O)cc1F`, for which the RP-LC retention time is 862 s. The figure for `Cc1sc(NC(=O)c2cccc(Br)c2)nc1-c1ccc2c(c1)N(C)C(=O)CO2` is 943 s. For the compound `COc1ccc2c(C)c(C(=O)NCCn3ncccc3=O)oc2c1`, the RP-LC retention time amounted to 669 s.

`Cc1noc(C)c1-c1ccc(S(=O)(=O)NCc2ccccc2)cc1` had an RP-LC retention time of 916 s. With `O=C(NC1CCN(c2cc(N3CCCC3)cnn2)C1)C1CC1` (stereo unspecified) the figure was 578 s. The figure for `CC(C)Cc1nc(-c2ccccc2)oc1CC(=O)NCc1cccc(Cl)c1` is 1090 s; for `COc1ccc(CC(=O)NCC2CCC(c3nc4ccccc4n3C)CC2)cc1` (stereo unspecified) it is 579 s; for `Cc1nnc(-c2cc3ccccc3n2Cc2ccccc2Cl)o1` it is 1100 s. The figure for `Cn1nnc2cc(-c3noc(C4CC(=O)N(c5cccc(Cl)c5)C4)n3)ccc21` (stereo unspecified) is 864 s; for `CCOC(=O)c1nc(NCc2ccc(OC(C)C)cc2)c2c(C)noc2n1` it is 1000 s; for `Cc1cccc(-c2csc3c(=O)n(CC(=O)OC(C)(C)C)cnc23)c1` it is 1070 s.

Regarding `CCOc1ccc(S(=O)(=O)NCc2c(-c3ccccc3)nc3sc(CC)nn23)cc1`, the RP-LC retention time is 963 s.

Regarding `CC(CCc1ccccc1)NC(=O)Cc1csc2nc(-c3ccccc3)cn12` (stereo unspecified), the RP-LC retention time stood at 850 s. The figure for `CCCCC(=O)Nc1cc(C(=O)O)ccc1N(C)CCc1c(C)nn(C)c1C` is 596 s; for `COc1ccc(NC(=O)Cn2ncc3c(N4CCN(c5ccccn5)CC4)ncnc32)cc1` it is 596 s; for `Nc1nnc(CCS(=O)(=O)c2ccccc2)o1` it is 565 s. The compound `Cc1ccc(N2C(=O)N(Cc3ccccc3)S(=O)(=O)c3cccnc32)cc1` displayed an RP-LC retention time of 1060 s.

`CC(=O)Oc1ccc2ccc(=O)oc2c1OC(C)=O` returned an RP-LC retention time of 856 s. `Oc1ccc2c3c1O[C@H]1[C@@H](O)CC[C@@]4(O)C(C2)N(CC2CCC2)CCC314` (stereo partly specified) had an RP-LC retention time of 635 s. With `O=C(CSc1cc(N2CCCC2)ncn1)NCc1cccs1` the figure was 601 s; with `Fc1ccc(CN2CCc3nc(N4CCN(c5ccccc5F)CC4)ncc3C2)c(F)c1`, 795 s; with `COc1cc(Cc2nc(-c3ccc4nnc(C)n4c3)no2)cc(OC)c1`, 796 s. Take `CCC1(O)CCC12CCN(C(=O)CC1CCN(C(C)=O)CC1)CC2` (stereo unspecified): the RP-LC retention time was 629 s. `O=C(NCCN1CCCCC1)C1CCc2sc(C(=O)N3CCCCC3)cc2C1` (stereo unspecified) registered an RP-LC retention time of 558 s. The compound `O=C(NC1CCN(c2cc(-c3ccc(Cl)cc3)[nH]n2)C1)c1ccc2[nH]ccc2c1` (stereo unspecified) had an RP-LC retention time of 742 s. Regarding `COc1ccc(-c2cc(C(F)(F)F)n3ncc(C(=O)O)c3n2)cc1`, the RP-LC retention time was 822 s. With `CC(C)CCNC(=O)Nc1ccc2c(c1)CCN2S(C)(=O)=O` the figure was 784 s. The figure for `CCOC(=O)C1CCN(C(=O)C2CCN(c3nnc(-c4ccc(C)cc4)o3)CC2)CC1` is 842 s. The figure for `CC(=O)c1c(C)n(CC(=O)NCc2cc3c(cc2C)OCCCO3)c2ccccc12` is 826 s; for `Cc1c(Cn2c(C)nc3c(C(=O)O)cc(N4CCOCC4)cc32)cccc1C(F)(F)F` it is 741 s. For `CCCc1ccc(S(=O)(=O)N2CCC(c3noc(-c4cccc(C)c4)n3)CC2)cc1`, the RP-LC retention time was determined as 1370 s. With `O=C(NCCc1csc(-c2ccccc2)n1)c1ccccc1C(F)(F)F` the figure was 883 s; with `COCc1cc(=O)n2c(n1)N(Cc1cccc(C#N)c1)CC2`, 669 s; with `CN1CCCCCCN(C(=O)Cn2c(=O)oc3ccccc32)[C@H]2CCC[C@H]2C1=O`, 830 s. `COc1cc(OC)cc(C(=O)Nc2nc(-c3ccc4c(c3)NC(=O)C(C)O4)cs2)c1` (stereo unspecified) displayed an RP-LC retention time of 940 s.

As to `CCOC(=O)C1CCN(c2cc3c(cc2NC(=O)NCCC(C)C)n(C)c(=O)n3C)CC1`, the RP-LC retention time stood at 823 s. The figure for `Cc1nc(CCNC(=O)[C@H]2CCCN2C(=O)c2ccc(Cl)cc2)cs1` is 674 s; for `CCC(CC)NC(=O)CCC1CCN(c2cc(NC3CC3)ncn2)CC1` it is 654 s. With `COCCn1cnc2c(-c3ccccc3)cn(CC(=O)NCC3CCCO3)c2c1=O` (stereo unspecified), the RP-LC retention time was 678 s.

`CC(C)CNS(=O)(=O)c1ccc(-c2nnc(C3CC3)o2)o1` displayed an RP-LC retention time of 809 s. With `Cc1ccccc1-c1csc(Nc2ccc(Br)cn2)n1` the figure was 1230 s; with `CCc1ccc(C(=O)CC2(O)C(=O)Nc3c(C)cccc32)cc1` (stereo unspecified), 807 s; with `CC(=O)N1CCCN(C2=NS(=O)(=O)C(c3ccc(F)cc3)=C2C)CC1`, 690 s.

`O=c1ccc(-c2nc(-c3cccc(Br)c3)no2)cn1Cc1ccncc1` had an RP-LC retention time of 746 s. As for `CCOC(=O)c1ccc(N2C=C(C#N)S(=O)(=O)c3cc(F)ccc32)cc1`, the RP-LC retention time was 907 s. Turning to `Cc1ccc(Cl)cc1NC(=O)C1CCCN(c2nnc(C)c3c(C)n(-c4ccccc4)nc23)C1` (stereo unspecified), the RP-LC retention time was 802 s.

`CCc1nc2cc(-c3noc(/C=C/c4ccco4)n3)ccc2o1` displayed an RP-LC retention time of 1090 s. With `CCOc1ccc(CCNC(=O)c2cc3sccc3n2CC)cc1OCC` the figure was 1050 s.

The record behind these values is the METLIN SMRT retention time set (Domingo-Almenara et al. 2019).
